The record followed here is patent publication EP0073100B1, “Beta-lactam compounds, their preparation and their use” (BEECHAM GROUP PLC, priority 1981, dated 1983).

What all share (experiment): MIC, growth inhibition in nutrient broth
Format in all cases: cell-based

For one assay, the system named is E. coli. As to conditions: Escherichia coli.
The subject of the next assay is Strep. faecalis. As to conditions: Enterococcus faecalis.
The test system of the next assay is B. subtilis. As to conditions: Bacillus subtilis.
The next assay has as its system S. typhimurium. To be noted: Salmonella enterica.
For a further assay, the system named is Strep. pyogenes. To be noted: Streptococcus pyogenes.
Another assay relates to Klebsiella aerogenes.
The subject of a further assay is Staph. aureus Russell. To be noted: Staphylococcus aureus, Staph. aureus Russell (β-lactamase-producing benylpenicillin-resistant strain).
In the next assay the test system is Staph. aureus Oxford. To be noted: Staphylococcus aureus.
The subject of the next assay is Proteus mirabilis.

The structures appear in SMILES notation. ≈ marks a conversion by molar mass, not a printed value.

For the compound `COC(=O)C1C[C@@H]2[C@H](NC(=O)COc3ccccc3)C(=O)N2[C@H]1C(=O)O` (mixture of isomers) [compound 17, (2RS, 5RS, 6SR) 1-Aza-3-methoxycarbonyl-6-phenoxyacetamidobicyclo [3.2.0] -heptan-7-one-2-carboxylic acid], the minimal inhibitory concentration (MIC) – broadly, the lowest concentration that inhibits growth of the organism – against E. coli was 250 µg/mL (≈ 690 µM); in the assay on Strep. faecalis, 8 µg/mL (≈ 22.1 µM); with B. subtilis, 2 µg/mL (≈ 5.52 µM); in the assay with S. typhimurium, 250 µg/mL (≈ 690 µM); with Strep. pyogenes it was less than 10.5 µg/mL; in the assay with Klebsiella aerogenes, 250 µg/mL (≈ 690 µM). Besides, the MIC was 62 µg/mL (≈ 171 µM) in the assay with Staph. aureus Russell, less than 0.5 µg/mL with Staph. aureus Oxford and 62 µg/mL (≈ 171 µM) in the assay on Proteus mirabilis.
